According to publication PMC12639566, “Identification of antimalarial drugs and bradykinin as ligands of the Plasmodium membrane protein PfSR10” (iScience, 2025):

Tests used:
[1] = target: T1, PfSR10 (Plasmodium falciparum, UniProt Q8I5P8); assay: FlAsH-BRET assay of PfSR10 extracellular conformational changes; format: cell-based; settings: for ECL3 movement relative to the PfSR10 N-terminus, S6 sensor: S6 (site 6) sensor site; for ECL1 movement relative to the PfSR10 N-terminus: concentration-dependent
Method: To characterize the binding properties of different ligands (CQ, DHA, PIP-TT, PQ, bradykinin or des-Arg9-bradykinin) to PfSR10, a FlAsH BRET assay was performed as previously described.[29]^,[32]^,[49] We seeded HEK293 cells or COS-7 cells in 6-well plate were transfected with PfSR10 FlAsH BRET sensors (S1 to S6 as indicated in Figure 4B) and incubated for 48 h at 37°C in 5% CO2. The overexpressed PfSR10 sensors cells were washed with FlAsH BRET buffer (25 mM HEPES, 1 mM CaCl2, 140 mM NaCl, 2.7 mM KCl, 0.9 mM MgCl2, 0.37 mM NaH2PO4, 5.5 mM D-glucose, 12 mM NaHCO3) and incubated with 2.5 μM FlLAsH EDT2 (pre-diluted in FLAsH BRET buffer) for 40min at 37°C in 5% CO2. The cells were washed twice, resuspended with FlAsH BRET buffer, and seeded into a 96-well plate at a density of 5x10^4 per well. After adding increasing concentrations of ligand (CQ, DHA, PIP-TT, PQ, bradykinin or des-Arg9-bradykinin) together with luciferase substrate coelenterazine-h (5 μM), the BRET signals between Nluc (440-480 nm) and FlAsH fluorescent moiety (525-585 nm) emissions were examined by a Mithras LB 940 Multimode Microplate Reader.

[2] = target: T1, PfSR10; assay: GloSensor-cAMP assay, inhibition of forskolin-induced cAMP in PfSR10-overexpressing HEK293 cells; format: cell-based
Method: (§1) To examine the constitutive activity of PfSR10, we transfected HEK293 cells with different concentrations of the receptor, including PfSR10, ADGRG2, ADGRG3. For measuring the anti-malarial drugs, bradykinin or des-Arg9-bradykinin-induced inhibition of forskolin-stimulated cAMP level in HEK293 cells or COS-7 cells, the receptor encoding plasmid (PfSR10 or its mutants) or empty plasmid (pcDNA3.1) was co-transfected with the GloSensor plasmid and incubated in an incubator at 37°C with 5% CO2 for 24 h. The transfected cells were then inoculated on 96-well plates (at a density of 4 × 10^4 / well) and incubated in incubators under the same conditions for another 24 hours. Cells were precultured with serum-free medium (Gibco) containing 5% DILUTED GloSensor™cAMP reagent Reserve solution (Progema) for 2 h. The base cAMP signal was directly measured using a multimode tablet reader (PerkinElmer Envision). At the same time, the cAMP signal induced by DHA, PIP-TT, PQ, CQ bradykinin or des-Arg9-bradykinin was detected after adding agonists into the corresponding Wells. Finally, the s-shaped dose response function in GraphPad Prism 7.0 was used to analyze the data.

[3] = target: T1, PfSR10; assay: Gi1-Gγ dissociation BRET assay in PfSR10-overexpressing HEK293 cells; format: cell-based; settings: for Gi1 coupling with PfSR10 (in words): G protein dissociation assay
Source text: (§2) To characterize the G protein signalling properties of PfSR10, G protein BRET probes were generated according to previous publication.[50] The Gqo BRET probes were generated by replacing the six amino acids of the C- terminus of Gq -RlucII with those from GoA1, creating a chimeric Gqo-RlucII subunit.[51] HEK293 cells or COS-7 cells were co-transfected with PfSR10 and various G protein probes (Gi, Gq and Gqo). Forty-eight hours post-transfection, cells were washed twice with HBSS, resuspended with HBSS buffer, and seeded into a 96-well plate at a density of 5x10^4 per well. After adding increasing concentrations of ligand (CQ, DHA, PIP-TT, PQ, Bradykinin, des-Arg9-bradykinin, bradykinin-Arg-FITC, FITC-bradykinin) together with luciferase substrate coelenterazine 400a (5 μM, Cayman), the BRET signals between […] (440-480 nm) and GFP2 (510 nm) emissions were examined by a Mithras LB 940 Multimode Microplate Reader (Berthold Technologies). The BRET signal was calculated as the ratio of the GFP2 emission to Nluc emission.

[4] = system: SR10; assay: GloSensor-cAMP assay in HEK293 cells overexpressing P. knowlesi SR10; format: cell-based; settings: one of the two other Plasmodium species
[5] = target: PcSR10 (Plasmodium chabaudi, UniProt A0A4V0KCI5); assay: GloSensor-cAMP assay in HEK293 cells overexpressing PcSR10; format: cell-based
[6] = system: Plasmodium falciparum; assay: IP3 ELISA in isolated parasites at trophozoite stage; format: cell-based; settings: 10 μM DHA, 1 h, compared with untreated group
Method: To measure the IP3 levels in the Plasmodium falciparum. P. falciparum parasites were collected as described above. In brief, after 1 h-treatment 1h with 10 μM of DHA, P. falciparum parasites were isolated at the trophozoite stage and washed twice with PBS. Then P. falciparum parasites were disrupted repeatedly by freeze-thaw, sedimented by centrifugation at 600 g for 10 min at 4°C. The supernatant was collected and IP3 levels were determined using IP3 ELISA Kit (Hengyuan Biotechnology, Shanghai) according to manufacturer’s instructions.

[7] = target: T1, PfSR10; assay: Gq-Gγ dissociation BRET assay in PfSR10-overexpressing HEK293 cells; format: cell-based
Source text: as §2

[8] = target: T2, PbSR10 (Plasmodium berghei, UniProt A0A509AUP3); assay: GloSensor-cAMP assay in HEK293 cells overexpressing PbSR10; format: cell-based
[9] = system: PfSR10 mutants; assay: GloSensor-cAMP assay with site-directed PfSR10 mutants; format: cell-based, Plasmodium falciparum
Method: as §1

[10] = target: T2, PbSR10; assay: Gi protein trimer dissociation assay in HEK293 cells overexpressing PbSR10; format: cell-based
[11] = system: SR10; assay: GloSensor-cAMP assay in HEK293 cells overexpressing P. vivax SR10; format: cell-based; settings: one of the two other Plasmodium species
[12] = system: Plasmodium falciparum; assay: cAMP ELISA in isolated parasites at trophozoite stage stimulated with Fsk; format: cell-based; settings: 10 μM DHA, 3 μM Fsk, compared with untreated group
Method: For determination of the cAMP levels in the Plasmodium falciparum, P. falciparum-infected human erythrocyte s at trophozoite stage, synchronized with sorbitol as previously described.[47] The P. falciparum-infected cells were subject to the 10 μM DHA treatment or not for 1 h after synchronization in the presence of 3 μM of Fsk. P. falciparum parasites were isolated at the trophozoite stage.[48] P. falciparum parasites were washed twice with PBS and resuspended at a concentration of 5×10^6 cells/ml^-1 in the same buffer and incubated for 15 min with 10 μM DHA in the presence 300 nM IBMX to prevent cAMP degradation. After treatment, P. falciparum parasites were disrupted repeatedly by freeze-thaw, sedimented by centrifugation at 600 g for 10 min at 4°C and the supernatant was collected and subjected to cAMP measurement using cAMP ELISA Kit (R&D systems) according to manufacturer’s instructions.

[13] = target: PySR10 (Plasmodium yoelii, UniProt V7PQD6); assay: GloSensor-cAMP assay in HEK293 cells overexpressing PySR10; format: cell-based
[14] = HEK293 cells overexpressing PfSR10, mean ± SEM

T1 sequence (Q8I5P8 entry or part of it): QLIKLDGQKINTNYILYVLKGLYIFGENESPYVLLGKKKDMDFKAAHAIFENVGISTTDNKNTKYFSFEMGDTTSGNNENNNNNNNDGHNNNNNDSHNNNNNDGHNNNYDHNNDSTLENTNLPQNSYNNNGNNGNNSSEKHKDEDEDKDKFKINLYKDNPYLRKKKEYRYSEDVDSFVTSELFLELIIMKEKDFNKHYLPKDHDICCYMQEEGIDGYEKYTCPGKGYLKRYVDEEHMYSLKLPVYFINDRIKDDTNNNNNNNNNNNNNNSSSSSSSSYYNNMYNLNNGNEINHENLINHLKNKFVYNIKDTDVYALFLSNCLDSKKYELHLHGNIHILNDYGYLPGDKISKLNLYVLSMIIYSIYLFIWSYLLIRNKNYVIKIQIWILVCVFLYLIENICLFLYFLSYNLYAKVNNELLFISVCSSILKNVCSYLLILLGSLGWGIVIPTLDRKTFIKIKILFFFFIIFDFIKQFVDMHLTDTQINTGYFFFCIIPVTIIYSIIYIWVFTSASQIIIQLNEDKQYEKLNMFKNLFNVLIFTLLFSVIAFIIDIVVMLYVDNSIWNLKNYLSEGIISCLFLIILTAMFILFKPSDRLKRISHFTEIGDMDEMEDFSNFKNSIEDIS
T2 sequence (A0A509AUP3 entry or part of it): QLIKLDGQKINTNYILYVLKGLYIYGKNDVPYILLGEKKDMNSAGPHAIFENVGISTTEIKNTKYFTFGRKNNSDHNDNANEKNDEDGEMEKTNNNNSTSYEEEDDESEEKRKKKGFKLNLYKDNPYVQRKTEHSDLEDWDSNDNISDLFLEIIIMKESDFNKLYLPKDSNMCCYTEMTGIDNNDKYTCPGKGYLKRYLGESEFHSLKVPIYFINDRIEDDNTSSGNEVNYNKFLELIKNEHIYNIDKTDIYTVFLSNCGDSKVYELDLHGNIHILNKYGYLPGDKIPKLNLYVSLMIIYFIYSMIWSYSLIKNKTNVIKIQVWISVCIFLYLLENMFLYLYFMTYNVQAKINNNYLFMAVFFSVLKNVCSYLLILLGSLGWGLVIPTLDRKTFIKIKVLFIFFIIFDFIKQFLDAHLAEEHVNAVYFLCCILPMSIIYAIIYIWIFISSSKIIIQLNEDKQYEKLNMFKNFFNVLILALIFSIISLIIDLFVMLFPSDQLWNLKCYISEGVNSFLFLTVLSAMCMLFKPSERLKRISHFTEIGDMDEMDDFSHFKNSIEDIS
PySR10, sequence (V7PQD6 entry or part of it): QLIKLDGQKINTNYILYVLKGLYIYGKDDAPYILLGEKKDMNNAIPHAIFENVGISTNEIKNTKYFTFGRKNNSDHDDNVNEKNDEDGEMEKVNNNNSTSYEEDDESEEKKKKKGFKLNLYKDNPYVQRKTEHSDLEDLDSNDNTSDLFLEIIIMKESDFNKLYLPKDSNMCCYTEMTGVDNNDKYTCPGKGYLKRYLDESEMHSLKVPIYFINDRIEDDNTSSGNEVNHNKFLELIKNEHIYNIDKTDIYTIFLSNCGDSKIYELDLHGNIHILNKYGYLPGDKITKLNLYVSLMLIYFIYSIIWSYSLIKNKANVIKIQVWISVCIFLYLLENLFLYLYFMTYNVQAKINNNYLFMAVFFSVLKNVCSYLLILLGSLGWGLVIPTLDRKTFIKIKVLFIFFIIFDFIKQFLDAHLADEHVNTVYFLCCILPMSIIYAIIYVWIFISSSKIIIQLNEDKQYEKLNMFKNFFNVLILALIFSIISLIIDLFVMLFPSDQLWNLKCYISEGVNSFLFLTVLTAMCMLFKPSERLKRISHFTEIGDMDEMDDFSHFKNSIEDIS
PcSR10, sequence (A0A4V0KCI5 entry or part of it): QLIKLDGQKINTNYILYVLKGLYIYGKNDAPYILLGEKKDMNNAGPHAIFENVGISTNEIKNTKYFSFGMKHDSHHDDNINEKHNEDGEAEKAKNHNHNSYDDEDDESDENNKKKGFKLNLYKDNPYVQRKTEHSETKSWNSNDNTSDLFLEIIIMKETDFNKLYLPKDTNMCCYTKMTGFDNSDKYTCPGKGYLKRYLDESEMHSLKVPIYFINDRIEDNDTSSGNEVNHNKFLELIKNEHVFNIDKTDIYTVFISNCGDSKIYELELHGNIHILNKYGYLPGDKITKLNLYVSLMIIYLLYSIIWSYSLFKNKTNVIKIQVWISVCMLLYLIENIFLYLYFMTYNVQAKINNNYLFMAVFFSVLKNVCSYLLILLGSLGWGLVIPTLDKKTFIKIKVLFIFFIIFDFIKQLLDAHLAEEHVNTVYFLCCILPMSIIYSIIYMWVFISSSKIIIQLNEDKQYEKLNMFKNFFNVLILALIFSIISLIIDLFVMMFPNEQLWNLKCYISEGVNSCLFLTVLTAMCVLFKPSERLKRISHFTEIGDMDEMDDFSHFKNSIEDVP

## O=C1C(O)=C([C@H]2CC[C@H](c3ccc(Cl)cc3)CC2)C(=O)c2ccccc21 [ATO, atovaquone]
[1]
  extracellular conformational changes in PfSR10: did not induce detectable extracellular conformational changes

## CCN(CC)CCCC(C)Nc1ccnc2cc(Cl)ccc12 (stereo not shown) [CQ, chloroquine]
[2]
  EC50: 36.6 ± 2.97 nM
[2]; [14]
  cAMP inhibition Emax: 0.958 ± 0.03 × 10^3
[1]
  ECL3 movement relative to the PfSR10 N-terminus, S6 sensor: separation of ECL3 from the PfSR10 N-terminus
  ECL1 movement relative to the PfSR10 N-terminus: inward movement of ECL1 toward the PfSR10 N-terminus
[3]
  EC50: 0.75 ± 0.06 nM
  Gi1 coupling with PfSR10 (in words): promoted Gi1 coupling with PfSR10

## C[C@H]1[C@@H](O)O[C@@H]2O[C@@]3(C)CC[C@H]4[C@H](C)CC[C@@H]1[C@@]24OO3 [DHA, dihydroartemisinin]
[4]
  cAMP response via SR10 of P. knowlesi: no response
[5]
  EC50: 37.6 ± 15.5 nM
[6]
  IP3 concentration in the malaria parasite: significantly increased
[7]
  EC50: 2 ± 0.1 nM
[8]
  EC50: 12.3 ± 4.75 nM
[9]; mutant C454F vs wild type
  effect of mutation on DHA potency, PfSR10 C454F: minimal effects
[9]; mutant L587M vs wild type
  effect of mutation on DHA-induced cAMP inhibition, PfSR10 L587M: significantly impaired
[9]; mutant N595S vs wild type
  effect of mutation on DHA-induced cAMP inhibition, PfSR10 N595S: significantly impaired
[9]; mutant T513A vs wild type
  effect of mutation on DHA-induced cAMP inhibition, PfSR10 T513A: significantly impaired
[9]; mutant T528S vs wild type
  effect of mutation on DHA potency, PfSR10 T528S: minimal effects
[2]
  EC50: 3.94 ± 1.6 nM
[2]; [14]
  cAMP inhibition Emax: 1.136 ± 0.06 × 10^3
[10]
  Gi dissociation downstream of PbSR10: promoted Gi dissociation
[11]
  cAMP response via SR10 of P. vivax: no response
[1]
  ECL1 movement relative to the PfSR10 N-terminus: inward movement of ECL1 toward the PfSR10 N-terminus
[12]
  Fsk-stimulated cAMP in the malaria parasite: inhibited
[13]
  EC50: 36.6 ± 6.78 nM

## Clc1ccc2c(N3CCN(CCCN4CCN(c5ccnc6cc(Cl)ccc56)CC4)CC3)ccnc2c1.O=P(O)(O)O [PIP-TT, piperaquine-tetraphosphate-tetrahydrate]
[2]; [14]
  cAMP inhibition Emax: 1.070 ± 0.09 × 10^3
[2]; inhibition of Fsk-induced cAMP elevation, HEK293 cells overexpressing PfSR10, mean ± SEM, n=3, read-out: cAMP inhibition EC50
  EC50: 0.4 ± 0.12 nM
[1]
  ECL3 movement relative to the PfSR10 N-terminus, S6 sensor: separation of ECL3 from the PfSR10 N-terminus
  ECL1 movement relative to the PfSR10 N-terminus: inward movement of ECL1 toward the PfSR10 N-terminus
[3]
  Gi1 coupling with PfSR10 (in words): promoted Gi1 coupling with PfSR10
[3]; [14]
  Gi1-dissociation Emax: -13.00 ± 1.00 × 10^-3
[3]; HEK293 cells overexpressing PfSR10, mean ± SEM, read-out: Gi1-dissociation EC50
  EC50: 9.18 ± 5.23 nM
